Test results from patent US20020026053A1, “Novel 3-(substituted) -2- indolinones compounds and use thereof as inhibitors of protein kinase activity” (priority 1997, published 2002).

Key:
PDGF-R = PDGF-R Assay (cellular ELISA, U1242 cells); type: cell-based; parameters: concentration or dose not given beside the values; conditions: protocol P.119
How it was run: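 U1242 cells seeded in 0.5% serum, serum-starved, then exposed to compound for 2 hr at 37°C before 5–10 min ligand stimulation and lysis in HNTG. Lysate captured on receptor-antibody-coated plates; phosphotyrosine detected with polyclonal anti-pTyr, goat anti-rabbit IgG and ABTS/H2O2, A410 (ref 630 nm), versus untreated cells.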

EGFR = biological target: T1, EGFR (Homo sapiens, UniProt P00533); test: Biochemical EGFR Assay; parameters: concentration or dose not given beside the values; conditions: protocol P.167
T1 construct: endogenous in cells; host or cells: A431 cells (lysate, captured with SUMO1 anti-EGFR antibody)
T1 sequence (P00533 25-1210): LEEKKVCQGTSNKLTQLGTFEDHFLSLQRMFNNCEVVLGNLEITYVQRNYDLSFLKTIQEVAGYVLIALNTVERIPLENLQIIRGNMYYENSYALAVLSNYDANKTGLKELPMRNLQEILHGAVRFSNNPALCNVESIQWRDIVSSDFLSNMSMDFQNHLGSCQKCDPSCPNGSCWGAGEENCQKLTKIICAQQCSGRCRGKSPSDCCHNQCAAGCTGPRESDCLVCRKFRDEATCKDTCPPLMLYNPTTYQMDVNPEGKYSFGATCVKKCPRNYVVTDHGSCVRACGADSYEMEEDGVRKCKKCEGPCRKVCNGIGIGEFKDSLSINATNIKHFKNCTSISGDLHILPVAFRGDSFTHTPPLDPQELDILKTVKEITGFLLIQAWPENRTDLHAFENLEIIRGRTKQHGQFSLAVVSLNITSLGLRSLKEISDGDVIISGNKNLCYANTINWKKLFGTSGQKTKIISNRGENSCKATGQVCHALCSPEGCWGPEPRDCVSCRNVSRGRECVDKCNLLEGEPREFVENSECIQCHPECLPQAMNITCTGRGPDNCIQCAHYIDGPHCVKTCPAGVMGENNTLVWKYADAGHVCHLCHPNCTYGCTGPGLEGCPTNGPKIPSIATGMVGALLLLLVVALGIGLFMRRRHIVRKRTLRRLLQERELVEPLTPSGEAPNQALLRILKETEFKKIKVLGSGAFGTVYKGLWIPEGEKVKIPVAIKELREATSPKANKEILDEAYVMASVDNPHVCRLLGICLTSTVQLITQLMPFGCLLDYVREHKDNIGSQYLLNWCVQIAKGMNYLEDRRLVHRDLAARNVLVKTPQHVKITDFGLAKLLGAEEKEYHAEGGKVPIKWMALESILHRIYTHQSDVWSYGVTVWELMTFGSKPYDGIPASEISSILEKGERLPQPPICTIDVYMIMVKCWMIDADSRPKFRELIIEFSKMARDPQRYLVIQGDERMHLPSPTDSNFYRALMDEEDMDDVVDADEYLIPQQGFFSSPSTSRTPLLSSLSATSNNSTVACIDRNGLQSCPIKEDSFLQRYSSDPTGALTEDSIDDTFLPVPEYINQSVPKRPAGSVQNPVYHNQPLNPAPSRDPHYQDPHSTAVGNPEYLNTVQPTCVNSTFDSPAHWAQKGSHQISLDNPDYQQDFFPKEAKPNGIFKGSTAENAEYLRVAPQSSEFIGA
How it was run: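 EGFR from A431 lysate was captured on anti-EGFR-coated wells and preincubated 30 min with compound (diluted 1:10 in TBS) at room temperature. After ATP/MnCl2 phosphorylation for 5 min, the reaction was stopped with EDTA. Phosphotyrosine was detected by ELISA (anti-phosphotyrosine, peroxidase conjugate, ABTS) at 410 nm.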

| SMILES | PDGF Kinase % Inhibition (P.119) (PDGF-R) [%] | Biochem EGFR % Inhibition (P.167) (EGFR) [%] |
| --- | --- | --- |
| Cc1c(Br)cc(Br)c2c1C(=Cc1cccc(F)c1)C(=O)N2 [10736/H07] | −21.9 | 52.2 |
| Cc1c(Br)cc(Br)c2c1C(=Cc1ccccc1F)C(=O)N2 [10736/H08] | −17.9 | −20.2 |
| CCc1ccc(C=C2C(=O)Nc3c(Br)cc(Br)c(C)c32)cc1 [10736/H09] | −14.8 | 35.7 |
| COc1cccc(C=C2C(=O)Nc3c(Br)cc(Br)c(C)c32)c1 [10736/H10] | −21.0 | 45.6 |
| Cc1c(Br)cc(Br)c2c1C(=Cc1ccccc1Cl)C(=O)N2 [10736/H11] | −12.7 | 11.1 |
| CCOc1ccc(C=C2C(=O)Nc3c(Br)cc(Br)cc32)cc1 [10737/A02] | 6.6 | 37.3 |
| Cc1ccc(C=C2C(=O)Nc3c(Br)cc(Br)cc32)c(C)c1 [10737/A03] | 38.8 | 12.8 |
| O=C1Nc2c(Br)cc(Br)cc2C1=Cc1cc(F)ccc1F [10737/A04] | 23.7 | 29.4 |
| O=C1Nc2c(Br)cc(Br)cc2C1=Cc1cccc(F)c1F [10737/A05] | 21.7 | 26.4 |
| COc1ccc(C=C2C(=O)Nc3c(Br)cc(Br)cc32)cc1F [10737/A06] | 15.7 | 37.3 |
| Cc1ccc(C)c(C=C2C(=O)Nc3c(Br)cc(Br)cc32)c1 [10737/A07] | 7.0 | 25.3 |
| O=C1Nc2c(Br)cc(Br)cc2C1=Cc1ccc2ccccc2c1 [10737/A08] | 1.0 | 35.8 |
| O=C1Nc2c(Br)cc(Br)cc2C1=Cc1ccc(Oc2ccccc2)cc1 [10737/A09] | 18.9 | 36.0 |
| CC(C)(C)c1ccc(Oc2cccc(C=C3C(=O)Nc4c(Br)cc(Br)cc43)c2)cc1 [10737/A10] | −3.8 | 10.9 |
| O=C1Nc2c(Br)cc(Br)cc2C1=Cc1cccc(Oc2cccc(C(F)(F)F)c2)c1 [10737/A11] | 28.1 | 10.8 |
| CCOc1ccc(C=C2C(=O)Nc3ccc(I)cc32)cc1 [10737/B02] | −28.9 | −34.0 |
| Cc1ccc(C=C2C(=O)Nc3ccc(I)cc32)c(C)c1 [10737/B03] | 29.7 | −34.9 |
| O=C1Nc2ccc(I)cc2C1=Cc1cc(F)ccc1F [10737/B04] | 12.5 | 7.1 |
| O=C1Nc2ccc(I)cc2C1=Cc1cccc(F)c1F [10737/B05] | 19.7 | 17.4 |
| COc1ccc(C=C2C(=O)Nc3ccc(I)cc32)cc1F [10737/B06] | 20.1 | 22.5 |
| Cc1ccc(C)c(C=C2C(=O)Nc3ccc(I)cc32)c1 [10737/B07] | 18.9 | 18.1 |
| O=C1Nc2ccc(I)cc2C1=Cc1ccc2ccccc2c1 [10737/B08] | −0.6 | 15.4 |
| O=C1Nc2ccc(I)cc2C1=Cc1ccc(Oc2ccccc2)cc1 [10737/B09] | −14.1 | 26.4 |

| SMILES | PDGF Kinase % Inhibition (P.119) (PDGF-R) [%] | Biochem EGFR % Inhibition (P.167) (EGFR) [%] |
| --- | --- | --- |
| CC(C)(C)c1ccc(Oc2cccc(C=C3C(=O)Nc4ccc(I)cc43)c2)cc1 [10737/B10] | −10.2 | −7.3 |
| O=C1Nc2ccc(I)cc2C1=Cc1cccc(Oc2cccc(C(F)(F)F)c2)c1 [10737/B11] | −10.2 | −9.9 |
| CCOc1ccc(C=C2C(=O)Nc3ccc(Br)c(C)c32)cc1 [10737/C02] | −2.2 | −22.0 |
| Cc1ccc(C=C2C(=O)Nc3ccc(Br)c(C)c32)c(C)c1 [10737/C03] | 7.0 | −0.7 |
| Cc1c(Br)ccc2c1C(=Cc1cc(F)ccc1F)C(=O)N2 [10737/C04] | 25.7 | 14.4 |
| Cc1c(Br)ccc2c1C(=Cc1cccc(F)c1F)C(=O)N2 [10737/C05] | 12.5 | 13.3 |
| COc1ccc(C=C2C(=O)Nc3ccc(Br)c(C)c32)cc1F [10737/C06] | 7.8 | 29.0 |
| Cc1ccc(C)c(C=C2C(=O)Nc3ccc(Br)c(C)c32)c1 [10737/C07] | 8.6 | 27.9 |
| Cc1c(Br)ccc2c1C(=Cc1ccc3ccccc3c1)C(=O)N2 [10737/C08] | 14.5 | 16.3 |
| Cc1c(Br)ccc2c1C(=Cc1ccc(Oc3ccccc3)cc1)C(=O)N2 [10737/C09] | −1.8 | 13.0 |
| Cc1c(Br)ccc2c1C(=Cc1cccc(Oc3ccc(C(C)(C)C)cc3)c1)C(=O)N2 [10737/C10] | 6.6 | −15.6 |
| Cc1c(Br)ccc2c1C(=Cc1cccc(Oc3cccc(C(F)(F)F)c3)c1)C(=O)N2 [10737/C11] | 32.5 | −5.6 |
| CCOc1ccc(C=C2C(=O)Nc3ccc(S(=O)(=O)NC)cc32)cc1 [10737/D02] | −4.2 | −14.7 |
| CNS(=O)(=O)c1ccc2c(c1)C(=Cc1ccc(C)cc1C)C(=O)N2 [10737/D03] | −5.8 | −21.5 |
| CNS(=O)(=O)c1ccc2c(c1)C(=Cc1cc(F)ccc1F)C(=O)N2 [10737/D04] | 9.4 | −27.7 |
| CNS(=O)(=O)c1ccc2c(c1)C(=Cc1cccc(F)c1F)C(=O)N2 [10737/D05] | 2.2 | 17.9 |
| CNS(=O)(=O)c1ccc2c(c1)C(=Cc1ccc(OC)c(F)c1)C(=O)N2 [10737/D06] | −10.2 | 33.8 |
| CNS(=O)(=O)c1ccc2c(c1)C(=Cc1cc(C)ccc1C)C(=O)N2 [10737/D07] | −5.0 | 16.1 |
| CNS(=O)(=O)c1ccc2c(c1)C(=Cc1ccc3ccccc3c1)C(=O)N2 [10737/D08] | 3.0 | 5.6 |
| CNS(=O)(=O)c1ccc2c(c1)C(=Cc1ccc(Oc3ccccc3)cc1)C(=O)N2 [10737/D09] | 1.0 | 13.7 |
| CNS(=O)(=O)c1ccc2c(c1)C(=Cc1cccc(Oc3ccc(C(C)(C)C)cc3)c1)C(=O)N2 [10737/D10] | 7.0 | −15.0 |
| CNS(=O)(=O)c1ccc2c(c1)C(=Cc1cccc(Oc3cccc(C(F)(F)F)c3)c1)C(=O)N2 [10737/D11] | 5.4 | −2.3 |
